Source: patent US7410975B2, “Small molecule toll-like receptor (TLR) antagonists” (Coley Pharmaceutical Group, Inc., priority 2003, dated 2008)
Read-outs that look alike come from different tables or passages of the source.

Experiments:
Assay type in all cases: cell-based
human TLR9 (hTLR9) [1] = biological target: T1, human TLR9 (hTLR9) (Homo sapiens, UniProt Q9NR96)
T1 construct: expressed in transfected cells
T1 sequence (Q9NR96 26-1032): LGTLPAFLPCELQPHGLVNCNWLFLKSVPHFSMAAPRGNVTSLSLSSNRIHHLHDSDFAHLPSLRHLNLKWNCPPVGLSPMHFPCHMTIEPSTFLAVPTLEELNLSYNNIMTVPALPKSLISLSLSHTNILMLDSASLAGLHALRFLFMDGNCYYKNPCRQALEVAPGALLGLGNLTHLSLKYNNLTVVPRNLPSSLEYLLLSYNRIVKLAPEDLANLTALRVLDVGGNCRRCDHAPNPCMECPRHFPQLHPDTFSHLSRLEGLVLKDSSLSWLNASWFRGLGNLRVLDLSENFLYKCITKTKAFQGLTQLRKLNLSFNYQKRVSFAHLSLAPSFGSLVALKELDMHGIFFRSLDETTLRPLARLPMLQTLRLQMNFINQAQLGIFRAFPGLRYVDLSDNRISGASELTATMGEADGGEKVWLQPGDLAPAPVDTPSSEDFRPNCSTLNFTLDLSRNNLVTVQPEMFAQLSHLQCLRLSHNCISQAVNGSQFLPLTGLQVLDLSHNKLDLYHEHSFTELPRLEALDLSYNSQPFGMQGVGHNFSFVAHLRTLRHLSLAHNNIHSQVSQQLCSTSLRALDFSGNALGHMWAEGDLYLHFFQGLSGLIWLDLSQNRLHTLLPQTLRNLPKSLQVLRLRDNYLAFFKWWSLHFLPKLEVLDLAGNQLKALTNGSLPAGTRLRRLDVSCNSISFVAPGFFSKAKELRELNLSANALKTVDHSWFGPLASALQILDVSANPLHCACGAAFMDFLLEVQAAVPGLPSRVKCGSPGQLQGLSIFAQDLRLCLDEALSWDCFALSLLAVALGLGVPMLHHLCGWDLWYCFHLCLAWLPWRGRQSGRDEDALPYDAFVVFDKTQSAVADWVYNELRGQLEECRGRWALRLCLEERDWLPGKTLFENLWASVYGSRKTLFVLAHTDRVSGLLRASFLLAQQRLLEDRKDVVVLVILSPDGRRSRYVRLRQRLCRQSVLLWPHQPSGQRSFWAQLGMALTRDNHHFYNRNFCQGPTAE
Description: Stably co-transfecting the human TLR9 receptor (hTLR9) and an NF-κB promoter-driven luciferase gene into HEK-293 cells created the cell line hTLR9-NFkB-293. hTLR9-NFkB-293 cells were counted and seeded at 1.5×10^4 cells per well in 96-well cell culture plates one day before assaying and cultured at 37° C./5% CO2. The day of the assay, antagonist was added at 50 μM, 5.0 μM or 0.5 μM. The cells were then stimulated with the EC50 dose of the TLR9 agonist, CpG-ODN 2006, and cultured for 16 h in a humidified incubator at 37° C. The culture supernatant was removed and the cells were treated with lysis buffer and stored at −80° C. before measuring luciferase activity. The luciferase readout was measured according to manufacturer's instructions using a luciferase assay system available from Promega, USA. The antagonist dose listed in Table 18 is the minimum effective dose (μM) for blockade of the TLR9 agonist. As evident from the results presented in Table 18, the minimum effective dose (μM) for blockade of the TLR9 agonist was 0.5 μM or 5 μM for all of the compounds tested, as measured by this three-point assay.

hTLR9 = biological target: T2, hTLR9 (Homo sapiens, UniProt Q9NR96); assay: hTLR9 antagonism IC50, hTLR9-NFkB-293 cells, luciferase readout, CpG-ODN 2006 (Examples 8 and 18, Tables 19 and 20); conditions: for inhibition of TLR9 signaling in vitro (in words): CpG-ODN 2006
T2 construct: expressed in transfected cells
T2 sequence (Q9NR96 26-1032): T1 sequence (Q9NR96 26-1032)
Description: (§1) hTLR9-NFkB-293 cells were counted and seeded at 1.5×10^4 cells per well in 96-well cell culture plates one day before assaying and cultured at 37° C./5% CO2, as described in Example 7. The day of the assay, antagonist was added at varying concentrations starting at 50 μM with a 1/5 to 1/6 dilution for 7 steps. The cells were then stimulated with the EC50 dose of the TLR9 agonist, CpG-ODN 2006, and cultured for 16 h in a humidified incubator at 37° C. The culture supernatant was removed and the cells were treated with lysis buffer and stored at −80° C. before measuring luciferase activity as described in Example 7. […] Results shown in Table 19 under the heading hTLR9 are the IC50 dose (μM) for blockade of a CpG ODN-generated signal in hTLR9-NFkB-293 cells.
as §1, with “20” for “19”

human TLR9 (hTLR9) [2] = biological target: T1, human TLR9 (hTLR9); assay: Antagonist screen, hTLR9-NFκB-293 cells, 6× NF-κB-luciferase reporter, with EC50 of CpG ODN 2006; conditions: compound at 0.5, 5, 50 μg/ml; EC50 concentration of CpG ODN 2006; 16 h; NF-κB-luciferase
Description: Candidate small molecules for initial screening were obtained from a commercially available library of 880 off-patent small molecules selected for structural diversity and proven bioavailability in humans (Prestwick Chemical Library). […] Results were measured as fold induction over baseline luciferase activity measured in the absence of ODN 2006 and compared to fold induction over baseline in the presence of the EC50 concentration of ODN 2006 alone. […] Additional screening was performed in like manner using additional small molecules selected from another library or specifically prepared for this purpose.
The method is described in greater detail as follows. The cells for each individual cell clone (hTLR3-NFκB-293, hTLR7-NFκB-293, hTLR8-NFκB-293 and hTLR9-NFκB-293) were counted and seeded one day before the stimulation at 1.5×10^4 cells per well in 96-well cell culture plates. To become adherent the cells were incubated after seeding overnight at 37° C. in 5% CO2 humidified air.
The screen for each compound was performed at the same time for all of the receptors TLR3, TLR7, TLR8 and TLR9. Up to fifteen test compounds, each assayed in duplicate at each of three different final concentrations (0.5 μg/ml, 5 μg/ml, and 50 μg/ml), were used for 16 h cell stimulation on a single multiwell culture plate. A 4× final concentration master plate was created to prepare the different test compounds before they were added to the cells.
Controls were added as duplicates individually for each cell clone on the cell culture plate. Positive controls were used as follows (final concentrations): 50 μg/ml poly(I:C) for hTLR3-NFκB-293; 8 μM resiquimod (R848) for hTLR7-NFκB-293; 30 μM R848 for hTLR8-NFκB-293; and 2.5 μM CpG-ODN 2006 for hTLR9-NFκB-293. Media alone was used as negative control. After addition of controls and small molecules, the cell clones were additionally stimulated with the EC50 concentration of the appropriate receptor-specific ligand.
The mean value of wells H2 and H5 (each with cells and EC50 concentration of the appropriate receptor-specific ligand) divided by the mean of wells H3 and H6 (each with cells alone) yielded the baseline response (i.e., fold induction of luciferase activity) to EC50 concentration of the appropriate receptor-specific ligand.
After 16 h stimulation the supernatant was removed and the cells treated with lysis buffer and stored at −80° C. before measuring.
For each screen result a graphical documentation was performed.
The baseline result (measured with addition of the EC50 concentration of the receptor-specific ligand) for each cell culture plate was measured as described above. Antagonistic effects were measured by down regulation compared to the baseline. Antagonists were scored as follows: • 13: compounds for which there was clear down regulation at 0.5 μg/ml, 5 μg/ml, and 50 μg/ml; • 12: compounds for which there was clear down regulation at 5 μg/ml and 50 μg/ml; • 11: compounds for which there was clear down regulation only at 50 μg/ml; • —: compounds for which there was no clear down regulation even at 50 μg/ml. Agonists

[3] = three-point assay at 50, 5.0 or 0.5 μM, EC50 dose of CpG-ODN 2006, 16 h
[4] = hTLR9-NFkB-293 cells, EC50 dose of CpG-ODN 2006, 16 h, Table 19 quinazolines, read-out: hTLR9 (IC50 dose for blockade of a CpG ODN-generated signal)
[5] = hTLR9-NFkB-293 cells, EC50 dose of CpG-ODN 2006, 16 h, Table 20 diarylmethanes, read-out: hTLR9 (IC50 dose for blockade of a CpG ODN-generated signal)

## Cc1cc(C)c2c(N)c3cccc(C)c3nc2n1 [compound 1227, 2,4,9-Trimethyl-benzo[b][1,8]naphthyridin-5-ylamine]
Human TLR9 (hTLR9) [1]; [3]
  antagonist dose (minimum effective dose for blockade of the TLR9 agonist): 5.0 µM

## CN1CCN(c2ccc(-c3nc(NCCN4CCOCC4)c4ccccc4n3)cc2)CC1 [CMZ 203-87]
hTLR9; [4]
  IC50: 0.02 µM

## CC1(C)Cc2nc3ccccc3c(N)c2C(O)C1 (stereo not shown) [compound 1286, 9-Amino-3,3-dimethyl-1,2,3,4-tetrahydro-acridin-1-ol]
Human TLR9 (hTLR9) [1]; [3]
  antagonist dose (minimum effective dose for blockade of the TLR9 agonist): 5.0 µM

## CN(C)CCNC(c1ccccc1)c1ccc(N2CCN(C)CC2)cc1 (stereo not shown) [CMZ 203-89]
hTLR9; hTLR9-NFkB-293 cells
  inhibition of TLR9 signaling in vitro (in words): found to inhibit TLR9 signaling
hTLR9; [5]
  IC50: 0.241 µM

## COc1cc2nc(N3CCN(c4ccccc4)CC3)nc(N)c2cc1OC [CMZ 203-90]
hTLR9; [4]
  IC50: 5.43 µM

## CN(C)CCOC(c1ccccc1)c1ccc(N2CCN(C)CC2)cc1 (stereo not shown) [CMZ 203-85]
hTLR9; hTLR9-NFkB-293 cells
  inhibition of TLR9 signaling in vitro (in words): found to inhibit TLR9 signaling
hTLR9; [5]
  IC50: 0.372 µM

## CN1CCN(c2ccc(/C(=N\O)c3ccccc3)cc2)CC1 [CMZ 203-88]
hTLR9; hTLR9-NFkB-293 cells
  inhibition of TLR9 signaling in vitro (in words): found to inhibit TLR9 signaling
hTLR9; [5]
  IC50: 11.6 µM

## CC1(C)C=Cc2c(nc3ccccc3c2N)C1 [compound 1201, 3,3-Dimethyl-3,4-dihydro-acridin-9-ylamine]
Human TLR9 (hTLR9) [1]; [3]
  antagonist dose (minimum effective dose for blockade of the TLR9 agonist): 0.5 µM

## CN1CCN(c2ccc(C(c3ccccc3)N3CCN(C)CC3)cc2)CC1 (stereo not shown) [CMZ 203-91]
hTLR9; hTLR9-NFkB-293 cells
  inhibition of TLR9 signaling in vitro (in words): found to inhibit TLR9 signaling
hTLR9; [5]
  IC50: 3.95 µM

## Cc1ccc2nc3c(c(N)c2c1)CCN3c1ccccc1 [1552(127), 6-Methyl-1-phenyl-2,3-dihydro-1H-pyrrolo[2,3-b]quinolin-4-ylamine]
Human TLR9 (hTLR9) [1]; [3]
  antagonist dose (minimum effective dose for blockade of the TLR9 agonist): 0.5 µM

## CCOc1ccc2nc3cc(NCc4ccco4)ccc3c(N)c2c1 [compound 1674, 7-Ethoxy-N*3*-furan-2-ylmethyl-acridine-3,9-diamine]
Human TLR9 (hTLR9) [1]; [3]
  antagonist dose (minimum effective dose for blockade of the TLR9 agonist): 5.0 µM

## CN(C)c1cc(N)c2ccccc2n1 [1553(128), N*2*,N*2*-Dimethyl-quinoline-2,4-diamine]
Human TLR9 (hTLR9) [1]; [3]
  antagonist dose (minimum effective dose for blockade of the TLR9 agonist): 0.5 µM

## CN(C)CCCN1c2ccccc2CCc2ccccc21.Cl [compound 72, Imipraminehydrochloride]
Human TLR9 (hTLR9) [2]
  hTLR9 (inhibitory effect, antagonist score): 13 (compounds for which there was clear down regulation at 0.5 μg/ml, 5 μg/ml, and 50 μg/ml)

## Nc1c2c(nc3ccccc13)CCCCC2 [compound 936, 7,8,9,10-Tetrahydro-6H-cyclohepta[b]quinolin-11-ylamine]
Human TLR9 (hTLR9) [1]; [3]
  antagonist dose (minimum effective dose for blockade of the TLR9 agonist): 0.5 µM

## Cc1cc(C)c2c(N)c3ccccc3nc2n1 [compound 1690, 2,4-Dimethyl-benzo[b][1,8]naphthyridin-5-ylamine]
Human TLR9 (hTLR9) [1]; [3]
  antagonist dose (minimum effective dose for blockade of the TLR9 agonist): 0.5 µM

## Nc1c2c(nc3ccccc13)CCC2 [compound 1061, 2,3-Dihydro-1H-cyclopenta[b]quinolin-9-ylamine]
Human TLR9 (hTLR9) [1]; [3]
  antagonist dose (minimum effective dose for blockade of the TLR9 agonist): 5.0 µM

## Cc1cc(C)c2c(N)c3cc(F)ccc3nc2n1 [compound 1727, 7-Fluoro-2,4-dimethyl-benzo[b][1,8]naphthyridin-5-ylamine]
Human TLR9 (hTLR9) [1]; [3]
  antagonist dose (minimum effective dose for blockade of the TLR9 agonist): 0.5 µM

## CN1CCN(c2ccc(Cc3ccccc3)cc2)CC1 [CMZ 203-88-1]
hTLR9
  IC50: 12 µM
hTLR9; hTLR9-NFkB-293 cells
  inhibition of TLR9 signaling in vitro (in words): found to inhibit TLR9 signaling

## Cl.Nc1c2c(nc3ccccc13)CCCC2 [compound 329, 1,2,3,4-Tetrahydro-acridin-9-ylamine Tacrine hydrochloridehydrate, reference compound]
Human TLR9 (hTLR9) [1]
  antagonist dose (minimum effective dose for blockade of the TLR9 agonist): 5.0 µM

## CN1CCN(c2ccc(C(O)c3ccccc3)cc2)CC1 (stereo not shown) [CMZ 203-84]
hTLR9
  IC50: 25.6 µM
hTLR9; hTLR9-NFkB-293 cells
  inhibition of TLR9 signaling in vitro (in words): found to inhibit TLR9 signaling

## Cc1ccc2nc3nc4c(C)cccc4c(N)c3cc2c1 [compound 1595, 2,7-Dimethyl-dibenzo[b,g][1,8]naphthyridin-11-ylamine]
Human TLR9 (hTLR9) [1]; [3]
  antagonist dose (minimum effective dose for blockade of the TLR9 agonist): 0.5 µM

## CN(C)CCOc1nc(-c2ccccc2)nc2ccccc12 [CMZ 203-45, Dimethyl-[2-(2-phenyl-quinazolin-4-yloxy)-ethyl]-amine]
hTLR9; [4]
  IC50: 29 µM
